For one molecule, IC50 and TOP-FLASH activity response results are on record in patent publication US20140243403A1, “TREATING COLORECTAL, PANCREATIC, AND LUNG CANCER” (The General Hospital Corporation, priority 2011, published 2014).

Molecules are shown by their SMILES.

As usually defined, the IC50 is the concentration that gives 50% inhibition.

In the test the test system is TOP-FLASH TCF4-responsive luciferase reporter. Nature of the test: TOP-FLASH TCF4 luciferase reporter in colon cancer cell lines. In kind it is cell-based, human. The text has this: (B) TOP-FLASH activity in KRAS-independent and KRAS-dependent cell lines following TAK1 inhibition with indicated concentrations (μM). Data are represented as means of triplicate experiments±SEM.
Since Wnt pathway enrichment was found in KRAS-dependent cells (FIG. 8C), the TAK1 dependency signature was overlapped with a dataset of binding sites for the Wnt-regulated transcription factor TCF4, derived from ChIP-on-Chip analyses (Hatzis et al., 2008). Of the 32 TAK1 dependency genes, 18 contained proximal TCF4 binding sites. A number of these genes, such as BAMBI, PROX1 and NAV2 (HELAD1) have been previously linked to colon tumorigenesis in the context of deregulated Wnt signaling (Lin et al., 2008; Petrova et al., 2008; Sekiya et al., 2004). Basal Wnt signaling activity was measured by TOP-FLASH TCF4-responsive luciferase assays. Cells were plated in 12-well tissue culture plates at a density of 5×10^4 cells/ml and 1 ml per well. Cells were then co-transfected with either 0.5 μg FOP-FLASH or TOP-FLASH plasmids plus 50 ng of pRL-TK (expressing Renilla luciferase). […]
To explore the role of KRAS and TAK1 in modulating Wnt signaling, the effect of KRAS depletion on β-catenin/TCF transcription was first assessed in a panel of KRAS mutant cell lines using the TOP-FLASH reporter (FIGS. 5A and 11A). […]
For orientation: Reporter assays use an easily measured gene product as a stand-in for the process of interest.

On to `COc1cc(O)c2c(c1)/C=C/C[C@H](O)[C@H](O)C(=O)/C=C\C[C@H](C)OC2=O` [5Z-7-oxozeaenol], for which, for the setting “KRAS-independent cells, 24 h treatment, read-out: IC50 for effect on TOP-FLASH activity”, the IC50 was more than 10 µM. For the same molecule, the TOP-FLASH activity response entry (SW837 cells, increased at low doses, reduced at 5 μM) is “biphasic response”.
